Earlier results, collected in patent publication US9585896B2, “Compositions comprising omega-3 fatty acids and vitamin D for psoriasis, and methods and uses thereof” (PRONOVA BIOPHARMA NORGE AS, priority 2012, dated 2017).

Tested on: patients with psoriasis
Conditions: over a 12-week period, versus high-dose etanercept

Substance: Ustekinumab: FDA-approved IL-12/IL-23 blocker targeting the common domain p40
- efficacy in patients with psoriasis: higher efficacy than high-dose etanercept
